Measured values taken from patent US20230085307A1, “PYRIDAZINONE COMPOUND AND HERBICIDE” (NISSAN CHEMICAL CORPORATION, priority 2019, published 2023).

Assays:
wild oat = assay: Test Example 4: herbicidal effect by soil treatment (Table 19, symbol I); type: in vivo, wild oat (Avena fatua); details: amount of applied herbicide 320 g/ha
In short: (§1)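 Pre-emergence style soil spray: seeds under ~1.5 cm sterilized diluvial soil received a uniform coat of emulsion diluted to the predetermined herbicide amount. Greenhouse 25–30° C; readout at week three on previously defined criteria.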

late watergrass [1] = assay: Test Example 1: herbicidal activity, application before weed generation under submerged conditions (Table 16, symbol A); type: in vivo, late watergrass (Echinochloa oryzicola); details: 320 g/ha applied herbicide
In short: (§2)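 Alluvial soil was flooded to 4 cm depth, weed seeds were sown mixed and 2.5-leaf rice seedlings were transplanted. On sowing day, the compound's emulsion, diluted in water to a set dose, was applied to the water surface. Plants grew at 25–30 °C and were scored 0–5 after three weeks.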

Japanese bulrush [2] = assay: Test Example 2: herbicidal activity, application during weed generation under submerged conditions (Table 17, symbol B); type: in vivo, Japanese bulrush (Schoenoplectus juncoides); details: AAH 320 g/ha; application during weed generation, submerged conditions
In short: (§3)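 In this pot test, flooded alluvial soil (water depth 4 cm) holds all three species sown as a mixture. Once seedlings have one to two leaves, the compound's emulsion, thinned with water to the intended dose, is poured on the water; grading follows after three weeks on the earlier criteria.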

southern crabgrass = assay: Test Example 4: herbicidal effect by soil treatment (Table 19, symbol F); type: in vivo, southern crabgrass (Digitaria ciliaris); details: amount of applied herbicide 320 g/ha
In short: as §1

chickweed = assay: Test Example 4: herbicidal effect by soil treatment (Table 19, symbol P); type: in vivo, common chickweed (Stellaria media); details: amount of applied herbicide 320 g/ha
In short: as §1

redroot pigweed = assay: Test Example 4: herbicidal effect by soil treatment (Table 19, symbol N); type: in vivo, redroot pigweed (Amaranthus retroflexus); details: amount of applied herbicide 320 g/ha
In short: as §1

late watergrass [3] = assay: Test Example 2: herbicidal activity, application during weed generation under submerged conditions (Table 17, symbol A); type: in vivo, late watergrass (Echinochloa oryzicola); details: AAH 320 g/ha; application during weed generation, submerged conditions
In short: as §3

barnyard grass [4] = assay: Test Example 4: herbicidal effect by soil treatment (Table 19, symbol H); type: in vivo, barnyard grass (Echinochloa crus-galli); details: amount of applied herbicide 320 g/ha
In short: as §1

green foxtail = assay: Test Example 4: herbicidal effect by soil treatment (Table 19, symbol G); type: in vivo, green foxtail (Setaria viridis); details: amount of applied herbicide 320 g/ha
In short: as §1

windgrass = assay: Test Example 4: herbicidal effect by soil treatment (Table 19, symbol L); type: in vivo, windgrass (Apera spica-venti); details: amount of applied herbicide 320 g/ha
In short: as §1

rice flat sedge = assay: Test Example 3: herbicidal effect by foliage application, Wagner pot (Table 18, symbol E); type: in vivo, rice flat sedge (Cyperus iria); details: amount of applied herbicide 320 g/ha
In short: (§4)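 Plants were sown in alluvial soil held under 0.1–0.5 cm standing water and grown 14 days in a greenhouse at 25–30 °C. An emulsifiable formulation, water-diluted to the set dose, was then sprayed onto the foliage, and effects were scored three weeks later using previously defined criteria.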

blackgrass = assay: Test Example 4: herbicidal effect by soil treatment (Table 19, symbol J); type: in vivo, blackgrass (Alopecurus myosuroides); details: amount of applied herbicide 320 g/ha
In short: as §1

Chinese sprangletop = assay: Test Example 3: herbicidal effect by foliage application, Wagner pot (Table 18, symbol D); type: in vivo, chinese sprangletop (Leptochloa chinensis); details: amount of applied herbicide 320 g/ha
In short: as §4

velvetleaf = assay: Test Example 4: herbicidal effect by soil treatment (Table 19, symbol M); type: in vivo, velvetleaf (Abutilon theophrasti); details: amount of applied herbicide 320 g/ha
In short: as §1

oval-leafed pondweed [5] = assay: Test Example 2: herbicidal activity, application during weed generation under submerged conditions (Table 17, symbol C); type: in vivo, oval-leafed pondweed (Monochoria vaginalis); details: AAH 320 g/ha; application during weed generation, submerged conditions
In short: as §3

barnyard grass [6] = assay: Test Example 3: herbicidal effect by foliage application, Wagner pot (Table 18, symbol H); type: in vivo, barnyard grass (Echinochloa crus-galli); details: amount of applied herbicide 320 g/ha
In short: as §4

Japanese bulrush [7] = assay: Test Example 1: herbicidal activity, application before weed generation under submerged conditions (Table 16, symbol B); type: in vivo, Japanese bulrush (Schoenoplectus juncoides); details: 320 g/ha applied herbicide
In short: as §2

Italian ryegrass = assay: Test Example 4: herbicidal effect by soil treatment (Table 19, symbol K); type: in vivo, Italian ryegrass (Lolium multiflorum); details: amount of applied herbicide 320 g/ha
In short: as §1

lambsquarters = assay: Test Example 4: herbicidal effect by soil treatment (Table 19, symbol O); type: in vivo, lambsquarters (Chenopodium album); details: amount of applied herbicide 320 g/ha
In short: as §1

persian speedwell = assay: Test Example 4: herbicidal effect by soil treatment (Table 19, symbol R); type: in vivo, Persian speedwell (Veronica persica); details: amount of applied herbicide 320 g/ha
In short: as §1

oval-leafed pondweed [8] = assay: Test Example 1: herbicidal activity, application before weed generation under submerged conditions (Table 16, symbol C); type: in vivo, oval-leafed pondweed (Monochoria vaginalis); details: 320 g/ha applied herbicide
In short: as §2

CCCC(=O)Oc1c(C)nn(C)c(=O)c1-c1c(-c2ccc(Cl)cc2F)sc2ccc(F)cc12 [2-349]
herbicidal effect on I: wild oat (wild oat): 0 (Herbicidal rate of 5% or less (almost no effect))
Herbicidal effect on A: late watergrass (grade 0-5) (late watergrass [1]): 3 (Herbicidal rate of 40% or more and less than 70%)
herbicidal effect rating, B: Japanese bulrush (Japanese bulrush [2]): 3 (Herbicidal rate of 40% or more and less than 70%)
herbicidal effect on F: southern crabgrass (southern crabgrass): 0 (Herbicidal rate of 5% or less (almost no effect))
herbicidal effect on P: chickweed (chickweed): 3 (Herbicidal rate of 40% or more and less than 70%)
herbicidal effect on N: redroot pigweed (redroot pigweed): 0 (Herbicidal rate of 5% or less (almost no effect))
herbicidal effect rating, A: late watergrass (late watergrass [3]): 3 (Herbicidal rate of 40% or more and less than 70%)
herbicidal effect on H: barnyard grass (barnyard grass [4]): 0 (Herbicidal rate of 5% or less (almost no effect))
herbicidal effect on G: green foxtail (green foxtail): 0 (Herbicidal rate of 5% or less (almost no effect))
herbicidal effect on L: windgrass (windgrass): 0 (Herbicidal rate of 5% or less (almost no effect))
herbicidal effect on E: rice flat sedge (rice flat sedge): 4 (Herbicidal rate of 70% or more and less than 90%)
herbicidal effect on J: blackgrass (blackgrass): 0 (Herbicidal rate of 5% or less (almost no effect))
herbicidal effect on D: Chinese sprangletop (Chinese sprangletop): 5 (Herbicidal rate of 90% or more (almost completely withered))
herbicidal effect on M: velvetleaf (velvetleaf): 0 (Herbicidal rate of 5% or less (almost no effect))
herbicidal effect rating, C: oval-leafed pondweed (oval-leafed pondweed [5]): 3 (Herbicidal rate of 40% or more and less than 70%)
herbicidal effect on H: barnyard grass (barnyard grass [6]): 5 (Herbicidal rate of 90% or more (almost completely withered))
Herbicidal effect on B: Japanese bulrush (grade 0-5) (Japanese bulrush [7]): 0 (Herbicidal rate of 5% or less (almost no effect))
herbicidal effect on K: Italian ryegrass (Italian ryegrass): 4 (Herbicidal rate of 70% or more and less than 90%)
herbicidal effect on O: lambsquarters (lambsquarters): 0 (Herbicidal rate of 5% or less (almost no effect))
herbicidal effect on R: persian speedwell (persian speedwell): 4 (Herbicidal rate of 70% or more and less than 90%)
Herbicidal effect on C: oval-leafed pondweed (grade 0-5) (oval-leafed pondweed [8]): 0 (Herbicidal rate of 5% or less (almost no effect))
